Read-outs that look alike come from different tables or passages of the source.
Key:
[1] = tested on: Pseudomonas aerugenosa (PSAE); experiment: Minimum inhibitory concentration (MIC), broth two-fold serial dilution test; settings: Pseudomonas, IIIB, read-out: MIC (G-) PSAE, trypticase soy broth (complex media); Table IIIb
[2] = tested on: Phytophthora capsici (PHY); experiment: In-vitro plant fungicide test; type: cell-based; settings: Phytophthora capsici
Aspergillus niger (ANIG) = experiment: Minimum inhibitory concentration (MIC), broth two-fold serial dilution test; type: cell-based; settings: Aspergillus niger, IIIB, trypticase soy broth (complex media); Table IIIb; read-out: MIC (F) ANIG
MON = experiment: In-vitro plant fungicide test; type: cell-based; settings: Table IVb, read-out: % Control at (ppm) indicated MON
Pythium ultimum (PYU) = experiment: In-vitro plant fungicide test; type: cell-based; settings: Globisporangium ultimum
THREE FUNGI = experiment: MIC test against three fungi in Mycophile Broth, pH 5.0, read after 8 days (Table VII); type: cell-based; settings: 192 h, serial dilutions from 50 ppm, read after 8 days of incubation
PSH = experiment: In-vitro plant fungicide test; type: cell-based; settings: Table IVb, read-out: % Control at (ppm) indicated PSH
ALT = experiment: In-vitro plant fungicide test; type: cell-based; settings: Table IVb, read-out: % Control at (ppm) indicated ALT
CER = experiment: In-vitro plant fungicide test; type: cell-based; settings: Table IVb, read-out: % Control at (ppm) indicated CER
COL = experiment: In-vitro plant fungicide test; type: cell-based; settings: Table IVb, read-out: % Control at (ppm) indicated COL
UST = experiment: In-vitro plant fungicide test; type: cell-based; settings: Table IVb, read-out: % Control at (ppm) indicated UST
[3] = tested on: Pseudomonas fluorescens (PSFL); experiment: Minimum inhibitory concentration (MIC), broth two-fold serial dilution test; settings: Pseudomonas fluorescens, IIIB, read-out: MIC (G-) PSFL, trypticase soy broth (complex media); Table IIIb
[4] = tested on: Xanthomonas campestris (XAN); experiment: In-vitro plant fungicide test; type: cell-based; settings: Xanthomonas campestris; 25 ppm; Table IVa; read-out: % Control at 25 ppm XAN
Escherichia coli (ECOL) = experiment: Minimum inhibitory concentration (MIC), broth two-fold serial dilution test; settings: Escherichia coli, IIIB, read-out: MIC (G-) ECOL, trypticase soy broth (complex media); Table IIIb
Septoria nodorum (SEP) = experiment: In-vitro plant fungicide test; type: cell-based; settings: Parastagonospora nodorum
Botrytis cinerea (BOC) = experiment: In-vitro plant fungicide test; type: cell-based; settings: Botrytis cinerea
Fusarium roseum (FUS) = experiment: In-vitro plant fungicide test; type: cell-based; settings: Fusarium sambucinum
[5] = tested on: Cochliobolus sativus (HEL); experiment: In-vitro plant fungicide test; type: cell-based; settings: Bipolaris sorokiniana

CC(=O)NCC(=O)OCC#CI [Compound 28, N-acetylglycine iodopropargyl ester]
50 µg/mL: MIC (THREE FUNGI; Aureobasidium pullulans, read-out: MIC APUL)
50%: inhibition of growth at 25 ppm (COL; 25 ppm) | inhibition of growth at 1.5 ppm (UST; 1.5 ppm) | inhibition of growth at 25 ppm [4]
12.5 µg/mL: MIC (THREE FUNGI; Aspergillus niger, read-out: MIC ANIG)
75%: inhibition of growth at 6 ppm (ALT; 6 ppm)
95%: inhibition of growth at 1.5 ppm (PSH; 1.5 ppm)
100%: inhibition of growth at 6 ppm ([2]; 6 ppm, Table IVb, read-out: % Control at (ppm) indicated PHY) | inhibition of growth at 25 ppm ([2]; Table IVa, read-out: % Control at 25 ppm PHY) | inhibition of growth at 25 ppm ([2]; Table IVb, read-out: % Control at (ppm) indicated PHY) | inhibition of growth at 6 ppm (MON; 6 ppm) | inhibition of growth at 25 ppm (MON; 25 ppm) | inhibition of growth at 6 ppm (Pythium ultimum (PYU); 6 ppm, Table IVb, read-out: % Control at (ppm) indicated PYU) | inhibition of growth at 25 ppm (Pythium ultimum (PYU); Table IVa, read-out: % Control at 25 ppm PYU) | inhibition of growth at 25 ppm (Pythium ultimum (PYU); Table IVb, read-out: % Control at (ppm) indicated PYU) | inhibition of growth at 6 ppm (PSH; 6 ppm) | inhibition of growth at 25 ppm (PSH; 25 ppm) | inhibition of growth at 12 ppm (ALT; 12 ppm) | inhibition of growth at 25 ppm (ALT; 25 ppm) | inhibition of growth at 6 ppm (CER; 6 ppm) | inhibition of growth at 25 ppm (CER; 25 ppm) | inhibition of growth at 3 ppm (UST; 3 ppm) | inhibition of growth at 6 ppm (UST; 6 ppm) | inhibition of growth at 12 ppm (UST; 12 ppm) | inhibition of growth at 25 ppm (UST; 25 ppm) | inhibition of growth at 25 ppm (Septoria nodorum (SEP); Table IVa, read-out: % Control at 25 ppm SEP) | inhibition of growth at 25 ppm (Septoria nodorum (SEP); Table IVb, read-out: % Control at (ppm) indicated SEP) | inhibition of growth at 25 ppm (Botrytis cinerea (BOC); Table IVa, *=Phytotoxic, read-out: % Control at 25 ppm BOC) | inhibition of growth at 25 ppm (Botrytis cinerea (BOC); Table IVb, read-out: % Control at (ppm) indicated BOC) | inhibition of growth at 25 ppm (Fusarium roseum (FUS); read-out: % Control at 25 ppm FUS, 25 ppm, Table IVa, *=Phytotoxic) | inhibition of growth at 12 ppm (Fusarium roseum (FUS); read-out: % Control at (ppm) indicated FUS, 12 ppm, Table IVb) | inhibition of growth at 25 ppm (Fusarium roseum (FUS); read-out: % Control at (ppm) indicated FUS, 25 ppm, Table IVb) | inhibition of growth at 6 ppm ([5]; 6 ppm, Table IVb, read-out: % Control at (ppm) indicated HEL) | inhibition of growth at 25 ppm ([5]; Table IVa, *=Phytotoxic, read-out: % Control at 25 ppm HEL) | inhibition of growth at 25 ppm ([5]; Table IVb, read-out: % Control at (ppm) indicated HEL)
63 µg/mL: MIC [1] | MIC [3] | MIC (Escherichia coli (ECOL))
0%: inhibition of growth at 1.5 ppm ([2]; 1.5 ppm, Table IVb, read-out: % Control at (ppm) indicated PHY) | inhibition of growth at 0.2 ppm ([2]; .2 ppm, Table IVb, read-out: % Control at (ppm) indicated PHY) | inhibition of growth at 0.4 ppm ([2]; .4 ppm, Table IVb, read-out: % Control at (ppm) indicated PHY) | inhibition of growth at 0.8 ppm ([2]; .8 ppm, Table IVb, read-out: % Control at (ppm) indicated PHY) | inhibition of growth at 1.5 ppm (MON; 1.5 ppm) | inhibition of growth at 0.2 ppm (MON; .2 ppm) | inhibition of growth at 0.4 ppm (MON; .4 ppm) | inhibition of growth at 0.8 ppm (MON; .8 ppm) | inhibition of growth at 1.5 ppm (Pythium ultimum (PYU); 1.5 ppm, Table IVb, read-out: % Control at (ppm) indicated PYU) | inhibition of growth at 0.2 ppm (Pythium ultimum (PYU); .2 ppm, Table IVb, read-out: % Control at (ppm) indicated PYU) | inhibition of growth at 0.4 ppm (Pythium ultimum (PYU); .4 ppm, Table IVb, read-out: % Control at (ppm) indicated PYU) | inhibition of growth at 0.8 ppm (Pythium ultimum (PYU); .8 ppm, Table IVb, read-out: % Control at (ppm) indicated PYU) | inhibition of growth at 0.2 ppm (PSH; .2 ppm) | inhibition of growth at 0.4 ppm (PSH; .4 ppm) | inhibition of growth at 0.8 ppm (PSH; .8 ppm) | inhibition of growth at 1.5 ppm (ALT; 1.5 ppm) | inhibition of growth at 3 ppm (ALT; 3 ppm) | inhibition of growth at 0.2 ppm (ALT; .2 ppm) | inhibition of growth at 0.4 ppm (ALT; .4 ppm) | inhibition of growth at 0.8 ppm (ALT; .8 ppm) | inhibition of growth at 1.5 ppm (CER; 1.5 ppm) | inhibition of growth at 0.2 ppm (CER; .2 ppm) | inhibition of growth at 0.4 ppm (CER; .4 ppm) | inhibition of growth at 0.8 ppm (CER; .8 ppm) | inhibition of growth at 1.5 ppm (COL; 1.5 ppm) | inhibition of growth at 3 ppm (COL; 3 ppm) | inhibition of growth at 6 ppm (COL; 6 ppm) | inhibition of growth at 12 ppm (COL; 12 ppm) | inhibition of growth at 0.2 ppm (COL; .2 ppm) | inhibition of growth at 0.4 ppm (COL; .4 ppm) | inhibition of growth at 0.8 ppm (COL; .8 ppm) | inhibition of growth at 0.2 ppm (UST; .2 ppm) | inhibition of growth at 0.4 ppm (UST; .4 ppm) | inhibition of growth at 0.8 ppm (UST; .8 ppm) | inhibition of growth at 1.5 ppm (Septoria nodorum (SEP); 1.5 ppm, Table IVb, read-out: % Control at (ppm) indicated SEP) | inhibition of growth at 6 ppm (Septoria nodorum (SEP); 6 ppm, Table IVb, read-out: % Control at (ppm) indicated SEP) | inhibition of growth at 0.2 ppm (Septoria nodorum (SEP); .2 ppm, Table IVb, read-out: % Control at (ppm) indicated SEP) | inhibition of growth at 0.4 ppm (Septoria nodorum (SEP); .4 ppm, Table IVb, read-out: % Control at (ppm) indicated SEP) | inhibition of growth at 0.8 ppm (Septoria nodorum (SEP); .8 ppm, Table IVb, read-out: % Control at (ppm) indicated SEP) | inhibition of growth at 1.5 ppm (Botrytis cinerea (BOC); 1.5 ppm, Table IVb, read-out: % Control at (ppm) indicated BOC) | inhibition of growth at 6 ppm (Botrytis cinerea (BOC); 6 ppm, Table IVb, read-out: % Control at (ppm) indicated BOC) | inhibition of growth at 0.2 ppm (Botrytis cinerea (BOC); .2 ppm, Table IVb, read-out: % Control at (ppm) indicated BOC) | inhibition of growth at 0.4 ppm (Botrytis cinerea (BOC); .4 ppm, Table IVb, read-out: % Control at (ppm) indicated BOC) | inhibition of growth at 0.8 ppm (Botrytis cinerea (BOC); .8 ppm, Table IVb, read-out: % Control at (ppm) indicated BOC) | inhibition of growth at 1.5 ppm (Fusarium roseum (FUS); read-out: % Control at (ppm) indicated FUS, 1.5 ppm, Table IVb) | inhibition of growth at 3 ppm (Fusarium roseum (FUS); read-out: % Control at (ppm) indicated FUS, 3 ppm, Table IVb) | inhibition of growth at 6 ppm (Fusarium roseum (FUS); read-out: % Control at (ppm) indicated FUS, 6 ppm, Table IVb) | inhibition of growth at 0.2 ppm (Fusarium roseum (FUS); read-out: % Control at (ppm) indicated FUS, .2 ppm, Table IVb) | inhibition of growth at 0.4 ppm (Fusarium roseum (FUS); read-out: % Control at (ppm) indicated FUS, .4 ppm, Table IVb) | inhibition of growth at 0.8 ppm (Fusarium roseum (FUS); read-out: % Control at (ppm) indicated FUS, .8 ppm, Table IVb) | inhibition of growth at 1.5 ppm ([5]; 1.5 ppm, Table IVb, read-out: % Control at (ppm) indicated HEL) | inhibition of growth at 0.2 ppm ([5]; .2 ppm, Table IVb, read-out: % Control at (ppm) indicated HEL) | inhibition of growth at 0.4 ppm ([5]; .4 ppm, Table IVb, read-out: % Control at (ppm) indicated HEL) | inhibition of growth at 0.8 ppm ([5]; .8 ppm, Table IVb, read-out: % Control at (ppm) indicated HEL)
2 µg/mL: MIC (Aspergillus niger (ANIG))
6.2 µg/mL: MIC (THREE FUNGI; Gloeophyllum trabeum, read-out: MIC GTRA)

Reference: patent EP0414533A1, “Use of iodopropargyl esters of alpha-amino acid derivatives as antimicrobial agents” (ROHM AND HAAS COMPANY, priority 1989, dated 1991)
